Assay results from publication PMC11285948, “The effects of CYP2B6 inactivators on the metabolism of ciprofol” (PLOS ONE, 2024).
“And” between values parts separate entries of the source, which are not always exact repeats. Identical values can stand only once.

Columns and labels:
[1] = test system: rat liver microsomes (RLMs); experiment: Ciprofol metabolism in RLM incubation system (incubation time, protein concentration, enzyme kinetics); assay type: in vitro ADME; conditions: for reduction of ciprofol ΔC (Enzymatic reaction kinetics): ΔC1-ΔC3 and Mean; for ciprofol concentration in incubation system (Incubation time) / ciprofol concentration in incubation system (Liver microsomal protein concentration): C1-C3 and Mean; for ciprofol concentration in incubation system (Liver microsomal protein concentration): RLMs, ciprofol 25 μg·mL^-1, 40 min
Procedure: The volume of the incubation system was 200 μL and included 2 μL of substrate (ciprofol), 8 μL of rat liver microsomes (RLMs) or 6 μL of human liver microsomes (HLMs), 12 μL of NADPH generation system of solution (solution A 10 μL, solution B 2 μL), and the remaining volume was PBS. The incubation was performed in a water bath at a constant temperature of 37°C, and each sample was incubated three times in parallel.
The incubation system was removed from the water bath, and the reaction was terminated immediately by adding 800 μL of reaction termination solution (acetonitrile solution containing 5 μg·mL^-1 D6-ciprofol at 4°C). The mixture was vortexed for 2 min and centrifuged for 15 min, after which the supernatant was transferred to an autosampler vial for HPLC-MS/MS detection.
The concentrations of ciprofol and liver microsomal proteins in the RLM incubation system were set at 25 μg·mL^-1 and 0.8 mg·mL^-1, respectively, whereas those in the HLM incubation system were set at 40 μg·mL^-1 and 0.6 mg·mL^-1, respectively. Samples were obtained and assayed after 0, 10, 20, 30, 40, 60, 80, 100 and 120 min of incubation, and the optimum incubation time was determined according to the decreasing trend in ciprofol concentration.
The ciprofol concentrations in the RLM and HLM incubation systems were set at 25 and 40 μg·mL^-1, respectively. The liver microsomal protein concentrations were 0, 0.1, 0.2, 0.4, 0.6, 0.8 and 1.0 mg·mL^-1. The optimal protein concentration in the incubation system was determined based on the reduction of ciprofol (ΔC) after 40 min of incubation in RLMs and 60 min in HLMs.
The liver microsomal protein concentrations in the RLM incubation system and the HLM incubation system were 0.8 mg·mL^-1 and 0.6 mg·mL^-1, and the cells were incubated for 40 min and 60 min, respectively. The ciprofol concentrations in the incubation system were set at 4, 8, 16, 32, 48 and 80 μg·mL^-1, and the kinetic parameters of ciprofol metabolism were investigated based on ΔC values at different initial ciprofol concentrations (C0).
The substrate elimination method was employed in this study, and GraphPad Prism 8.0.2 software was used for statistical processing, including determination of the kinetic parameters of ciprofol metabolism and the IC50 values of psoralen and clopidogrel for ciprofol metabolism. The maximum velocity (Vmax), Michaelis constant (Km) and intrinsic clearance (CLint) were calculated using the […]: V=Vmax×[S]/Km+[S] CLint=Vmax/Km

[2] = clinical trials; cited from earlier work
[3] = test system: typical substrates of CYP1A2, CYP2B6, and CYP2C19; conditions: IVIVE and PBPK simulations; ref Hou et al. 9; cited from earlier work

## CC(C)c1cccc([C@H](C)C2CC2)c1O [ciprofol]
[1]; RLMs 0.8 mg·mL^-1, 40 min
  Km of ciprofol metabolism: 25.11 µg/mL
  Vmax of ciprofol metabolism: 14.06 ng·min^-1·mg protein^-1
[1]; RLMs 0.8 mg·mL^-1, 40 min, initial ciprofol C 4 μg/mL
  reduction of ciprofol ΔC (Enzymatic reaction kinetics): 2.12 µg/mL and 1.71 µg/mL and 2.14 µg/mL and 1.99 µg/mL
[1]; RLMs 0.8 mg·mL^-1, 40 min, initial ciprofol C 8 μg/mL
  reduction of ciprofol ΔC (Enzymatic reaction kinetics): 3.40 µg/mL and 3.72 µg/mL and 3.90 µg/mL and 3.68 µg/mL
[1]; RLMs 0.8 mg·mL^-1, 40 min, initial ciprofol C 16 μg/mL
  reduction of ciprofol ΔC (Enzymatic reaction kinetics): 5.07 µg/mL and 6.04 µg/mL and 4.94 µg/mL and 5.35 µg/mL
[1]; RLMs 0.8 mg·mL^-1, 40 min, initial ciprofol C 32 μg/mL
  reduction of ciprofol ΔC (Enzymatic reaction kinetics): 7.10 µg/mL and 8.64 µg/mL and 7.63 µg/mL and 7.79 µg/mL
[1]; RLMs 0.8 mg·mL^-1, 40 min, initial ciprofol C 48 μg/mL
  reduction of ciprofol ΔC (Enzymatic reaction kinetics): 9.57 µg/mL and 8.62 µg/mL and 8.97 µg/mL and 9.05 µg/mL
[1]; RLMs 0.8 mg·mL^-1, 40 min, initial ciprofol C 80 μg/mL
  reduction of ciprofol ΔC (Enzymatic reaction kinetics): 10.20 µg/mL and 11.72 µg/mL and 10.73 µg/mL and 10.88 µg/mL
[1]; RLMs 0.8 mg·mL^-1, ciprofol 25 μg·mL^-1, T 0 min
  ciprofol concentration in incubation system (Incubation time): 25.04 µg/mL and 26.05 µg/mL and 27.04 µg/mL and 26.04 µg/mL
[1]; RLMs 0.8 mg·mL^-1, ciprofol 25 μg·mL^-1, T 10 min
  ciprofol concentration in incubation system (Incubation time): 21.96 µg/mL and 25.48 µg/mL and 25.19 µg/mL and 24.21 µg/mL
[1]; RLMs 0.8 mg·mL^-1, ciprofol 25 μg·mL^-1, T 20 min
  ciprofol concentration in incubation system (Incubation time): 20.63 µg/mL and 19.64 µg/mL and 23.74 µg/mL and 21.34 µg/mL
[1]; RLMs 0.8 mg·mL^-1, ciprofol 25 μg·mL^-1, T 30 min
  ciprofol concentration in incubation system (Incubation time): 17.46 µg/mL and 18.48 µg/mL and 22.67 µg/mL and 19.53 µg/mL
[1]; RLMs 0.8 mg·mL^-1, ciprofol 25 μg·mL^-1, T 40 min
  ciprofol concentration in incubation system (Incubation time): 16.32 µg/mL and 16.15 µg/mL and 19.54 µg/mL and 17.34 µg/mL
[1]; RLMs 0.8 mg·mL^-1, ciprofol 25 μg·mL^-1, T 60 min
  ciprofol concentration in incubation system (Incubation time): 15.01 µg/mL and 16.57 µg/mL and 18.99 µg/mL and 16.86 µg/mL
[1]; RLMs 0.8 mg·mL^-1, ciprofol 25 μg·mL^-1, T 80 min
  ciprofol concentration in incubation system (Incubation time): 13.80 µg/mL and 14.14 µg/mL and 18.20 µg/mL and 15.38 µg/mL
[1]; RLMs 0.8 mg·mL^-1, ciprofol 25 μg·mL^-1, T 100 min
  ciprofol concentration in incubation system (Incubation time): 12.48 µg/mL and 12.69 µg/mL and 17.81 µg/mL and 14.32 µg/mL
[1]; RLMs 0.8 mg·mL^-1, ciprofol 25 μg·mL^-1, T 120 min
  ciprofol concentration in incubation system (Incubation time): 11.61 µg/mL and 11.81 µg/mL and 16.86 µg/mL and 13.43 µg/mL
[1]; Cprotein 0 mg/mL
  ciprofol concentration in incubation system (Liver microsomal protein concentration): 24.55 µg/mL and 25.68 µg/mL and 26.29 µg/mL and 25.50 µg/mL
[1]; Cprotein 0.1 mg/mL
  ciprofol concentration in incubation system (Liver microsomal protein concentration): 23.43 µg/mL and 22.66 µg/mL and 24.40 µg/mL and 23.50 µg/mL
[1]; Cprotein 0.2 mg/mL
  ciprofol concentration in incubation system (Liver microsomal protein concentration): 21.66 µg/mL and 22.34 µg/mL and 19.74 µg/mL and 21.25 µg/mL
[1]; Cprotein 0.4 mg/mL
  ciprofol concentration in incubation system (Liver microsomal protein concentration): 19.22 µg/mL and 19.23 µg/mL and 17.57 µg/mL and 18.67 µg/mL
[1]; Cprotein 0.6 mg/mL
  ciprofol concentration in incubation system (Liver microsomal protein concentration): 19.49 µg/mL and 17.16 µg/mL and 15.28 µg/mL and 17.31 µg/mL
[1]; Cprotein 0.8 mg/mL
  ciprofol concentration in incubation system (Liver microsomal protein concentration): 18.46 µg/mL and 15.72 µg/mL and 14.74 µg/mL and 16.31 µg/mL
[1]; Cprotein 1 mg/mL
  ciprofol concentration in incubation system (Liver microsomal protein concentration): 17.05 µg/mL and 19.78 µg/mL and 13.60 µg/mL and 16.81 µg/mL
[2]
  incidence of pain on injection relative to that caused by propofol: 1/10
[3]
  predicted drug-drug interactions with typical substrates of CYP1A2, CYP2B6, and CYP2C19: did not cause drug‒drug interactions
